Molecules are shown by their SMILES.

Holding throughout (assay type): cell-based, murine
The target of experiment [1] is EGFR L858R/C775S Ba/F3 cells (Homo sapiens, UniProt P00533, C775S/L858R, cells depend on it). Put plainly: Ba/F3 cell proliferation (Cell Titer Glo), EGFR L858R/C775S. To be noted: 72 hours exposure, read-out: L858R/C775S (μM), inhibitory activity against EGFR mutants. From the text: The EGFR mutant L858R Ba/F3 cells have been previously described (Zhou, W., et al. Nature 462, 2009, 1070-1074). The EGFR C797S and C775S mutations were introduced via site directed mutagenesis using the Quick Change Site-Directed Mutagenesis kit into a vector containing EGFR L858R mutation (Stratagene; La Jolla, CA) according to the manufacturer's instructions. All constructs were confirmed by DNA sequencing. The constructs were then shuttled into the retroviral vector JP1540 by either using the Cre-recombination system (Agilent Technologies, Santa Clara, CA) or the In-fusion HD Cloning kit (Takara Bio USA, Inc.; Mountain view, CA). Ba/F3 cells were then infected with retrovirus per standard protocols, as described previously (Zhou, et al, Nature 2009). Stable clones were obtained by selection in puromycin (2 ug/ml). All BaF/3 mutant cells were maintained in RPMI 1640 (Cellgro; Mediatech Inc., Herndon, CA) supplemented with 10% FBS, 100 units/mL penicillin, 100 units/mL streptomycin.
Growth and inhibition of growth was assessed by the Cell Titer Glo assay (Promega, Madison, WI) and was performed according to the manufacturer's instructions. The Cell Titer Glo assay is a luminescence-based method used to determine the number of viable cells based on quantitation of the ATP present, which is directly proportional to the amount of metabolically active cells present. Ba/F3 cells of different EGFR genotypes were exposed to compounds for 72 hours and the number of cells used per experiment was determined empirically as has been previously established (Zhou, et al., Nature 2009). All experimental points were set up in triplicates in 384-well plates. […] The curves were fitted using a non-linear regression model with a sigmoidal dose response.
For inhibitory activity against EGFR mutants, the following designations are used: ≤0·25 μM=A, 0·25 μM˜0.5 μM=B, 0.5 μM˜2.5 μM=C, ≥2.5 μM=D.
In general terms: ATP-based viability assays read luminescence as a measure of living cells.

Experiment [2] deals with EGFR mutant L858R Ba/F3 cells (Homo sapiens, UniProt P00533, L858R, cells depend on it). Put plainly: Ba/F3 cell proliferation (Cell Titer Glo), EGFR L858R. To be noted: 72 hours exposure, read-out: L858R BaF3 (μM), inhibitory activity against EGFR mutants. An outline of the steps: (§1)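 Ba/F3 cells stably expressing retrovirally transduced EGFR L858R, L858R/C797S or L858R/C775S, puromycin-selected. Compound exposure 72 hours in triplicate; viability by Cell Titer Glo ATP luminescence.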

For experiment [3], the target named is EGFR L858R/C797S Ba/F3 cells (Homo sapiens, UniProt P00533, C797S/L858R, cells depend on it). Put plainly: Ba/F3 cell proliferation (Cell Titer Glo), EGFR L858R/C797S. To be noted: 72 hours exposure, read-out: L858R/C797S (μM), inhibitory activity against EGFR mutants. In short, it runs like this: as §1
EGFR L858R/C797S Ba/F3 cells, sequence (P00533 whole entry C797S/L858R): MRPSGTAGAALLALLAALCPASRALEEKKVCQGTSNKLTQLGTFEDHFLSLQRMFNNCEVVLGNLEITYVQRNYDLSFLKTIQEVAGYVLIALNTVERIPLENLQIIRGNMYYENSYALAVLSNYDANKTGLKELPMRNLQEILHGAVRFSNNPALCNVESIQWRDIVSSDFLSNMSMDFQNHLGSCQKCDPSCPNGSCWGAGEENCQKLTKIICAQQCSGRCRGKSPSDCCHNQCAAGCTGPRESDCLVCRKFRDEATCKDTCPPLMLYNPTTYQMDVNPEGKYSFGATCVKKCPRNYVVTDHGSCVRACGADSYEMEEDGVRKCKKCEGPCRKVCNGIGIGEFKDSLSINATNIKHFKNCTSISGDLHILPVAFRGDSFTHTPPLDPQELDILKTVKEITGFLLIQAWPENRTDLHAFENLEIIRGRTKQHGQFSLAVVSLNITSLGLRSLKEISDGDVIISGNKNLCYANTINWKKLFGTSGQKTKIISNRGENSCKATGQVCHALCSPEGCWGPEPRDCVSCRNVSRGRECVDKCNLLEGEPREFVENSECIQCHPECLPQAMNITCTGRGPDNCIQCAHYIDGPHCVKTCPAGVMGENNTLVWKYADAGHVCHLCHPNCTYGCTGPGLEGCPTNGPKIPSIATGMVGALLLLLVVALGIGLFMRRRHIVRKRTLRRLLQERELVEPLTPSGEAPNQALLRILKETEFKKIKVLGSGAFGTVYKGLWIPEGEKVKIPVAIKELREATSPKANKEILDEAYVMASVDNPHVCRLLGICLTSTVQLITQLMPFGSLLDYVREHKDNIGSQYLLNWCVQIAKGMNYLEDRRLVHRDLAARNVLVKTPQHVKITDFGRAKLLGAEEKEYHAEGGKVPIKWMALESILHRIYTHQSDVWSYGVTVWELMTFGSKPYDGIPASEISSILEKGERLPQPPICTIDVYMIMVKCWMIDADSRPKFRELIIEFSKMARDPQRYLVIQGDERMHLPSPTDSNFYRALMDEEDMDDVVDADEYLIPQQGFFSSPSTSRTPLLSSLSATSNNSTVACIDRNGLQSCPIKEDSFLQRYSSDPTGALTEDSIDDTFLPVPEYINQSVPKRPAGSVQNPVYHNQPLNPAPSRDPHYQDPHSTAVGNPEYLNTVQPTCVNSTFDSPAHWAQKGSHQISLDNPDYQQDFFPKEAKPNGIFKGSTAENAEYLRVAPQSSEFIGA

EGFR mutant L858R Ba/F3 cells, sequence (P00533 whole entry L858R): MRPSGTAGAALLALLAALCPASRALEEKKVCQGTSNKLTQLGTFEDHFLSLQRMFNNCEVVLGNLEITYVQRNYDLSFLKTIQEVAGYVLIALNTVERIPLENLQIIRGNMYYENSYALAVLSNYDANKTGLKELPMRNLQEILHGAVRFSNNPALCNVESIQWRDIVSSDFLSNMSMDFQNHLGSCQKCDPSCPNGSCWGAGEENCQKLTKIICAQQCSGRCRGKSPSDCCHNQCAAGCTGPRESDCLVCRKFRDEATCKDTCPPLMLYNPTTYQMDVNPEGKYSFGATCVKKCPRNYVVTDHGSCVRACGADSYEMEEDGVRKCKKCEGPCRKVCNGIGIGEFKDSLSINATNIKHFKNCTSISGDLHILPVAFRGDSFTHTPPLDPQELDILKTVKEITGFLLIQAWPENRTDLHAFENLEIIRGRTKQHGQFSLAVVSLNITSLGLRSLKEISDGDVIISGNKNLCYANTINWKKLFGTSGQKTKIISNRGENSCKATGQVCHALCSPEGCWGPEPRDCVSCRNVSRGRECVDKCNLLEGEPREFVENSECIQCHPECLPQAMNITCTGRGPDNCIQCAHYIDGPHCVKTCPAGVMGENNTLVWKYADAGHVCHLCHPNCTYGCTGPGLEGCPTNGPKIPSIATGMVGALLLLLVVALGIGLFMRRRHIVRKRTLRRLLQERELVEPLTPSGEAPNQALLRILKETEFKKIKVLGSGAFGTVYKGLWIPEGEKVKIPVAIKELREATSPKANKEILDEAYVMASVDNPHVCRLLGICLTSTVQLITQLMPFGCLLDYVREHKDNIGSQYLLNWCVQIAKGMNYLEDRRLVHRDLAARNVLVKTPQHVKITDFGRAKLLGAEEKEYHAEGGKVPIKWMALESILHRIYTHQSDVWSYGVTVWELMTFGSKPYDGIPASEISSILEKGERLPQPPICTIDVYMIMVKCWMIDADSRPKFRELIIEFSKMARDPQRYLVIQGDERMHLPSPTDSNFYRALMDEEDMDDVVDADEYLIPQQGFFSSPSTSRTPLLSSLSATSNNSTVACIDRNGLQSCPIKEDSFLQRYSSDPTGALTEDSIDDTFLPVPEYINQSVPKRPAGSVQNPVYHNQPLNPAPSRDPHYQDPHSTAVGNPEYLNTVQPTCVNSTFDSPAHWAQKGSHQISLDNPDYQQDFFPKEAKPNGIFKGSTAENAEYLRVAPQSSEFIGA
EGFR L858R/C775S Ba/F3 cells, sequence (P00533 whole entry C775S/L858R, the tested form may be a part): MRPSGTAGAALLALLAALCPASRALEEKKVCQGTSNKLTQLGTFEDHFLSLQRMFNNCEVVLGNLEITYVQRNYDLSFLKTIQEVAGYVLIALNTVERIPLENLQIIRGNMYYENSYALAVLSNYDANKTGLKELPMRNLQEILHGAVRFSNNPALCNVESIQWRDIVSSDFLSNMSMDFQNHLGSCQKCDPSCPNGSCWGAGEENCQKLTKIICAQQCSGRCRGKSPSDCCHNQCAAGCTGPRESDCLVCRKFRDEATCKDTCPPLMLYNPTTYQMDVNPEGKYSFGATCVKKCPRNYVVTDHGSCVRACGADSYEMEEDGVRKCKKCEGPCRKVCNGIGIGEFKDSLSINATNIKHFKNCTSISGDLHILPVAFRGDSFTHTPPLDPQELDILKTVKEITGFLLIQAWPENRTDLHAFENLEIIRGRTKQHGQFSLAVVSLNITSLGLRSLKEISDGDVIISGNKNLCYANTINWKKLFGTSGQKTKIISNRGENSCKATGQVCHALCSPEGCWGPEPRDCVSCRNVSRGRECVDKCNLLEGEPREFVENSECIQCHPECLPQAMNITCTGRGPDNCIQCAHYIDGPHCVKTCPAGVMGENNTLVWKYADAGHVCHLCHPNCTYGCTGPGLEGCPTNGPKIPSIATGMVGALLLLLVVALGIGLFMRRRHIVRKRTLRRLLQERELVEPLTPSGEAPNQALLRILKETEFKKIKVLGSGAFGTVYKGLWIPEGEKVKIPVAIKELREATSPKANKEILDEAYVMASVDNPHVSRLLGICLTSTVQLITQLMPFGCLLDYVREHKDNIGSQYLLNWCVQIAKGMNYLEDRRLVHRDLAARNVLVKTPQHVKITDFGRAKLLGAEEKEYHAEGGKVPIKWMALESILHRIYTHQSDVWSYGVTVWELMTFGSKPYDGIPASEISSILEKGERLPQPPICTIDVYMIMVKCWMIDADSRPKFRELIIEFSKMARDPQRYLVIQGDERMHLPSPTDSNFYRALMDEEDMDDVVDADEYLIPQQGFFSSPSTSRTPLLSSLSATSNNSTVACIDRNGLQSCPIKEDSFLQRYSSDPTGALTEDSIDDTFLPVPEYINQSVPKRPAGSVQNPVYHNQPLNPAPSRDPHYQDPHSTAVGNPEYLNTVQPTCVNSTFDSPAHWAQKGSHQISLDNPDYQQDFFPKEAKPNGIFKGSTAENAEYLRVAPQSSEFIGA

As to `C=CC(=O)Nc1ccccc1Oc1cc2cnc(Nc3ccc(N4CCN(C)CC4)cc3)nc2n(-c2cccc(NC(C)=O)c2)c1=O` [Compound 008], the GI50 is at least 2.5 µM in experiment [1], 0.5 to 2.5 µM in experiment [2] and at least 2.5 µM in experiment [3].

Turning to `C#CC(=O)Nc1ccccc1Oc1cc2cnc(Nc3ccc(N4CCN(C)CC4)cc3)nc2n(C)c1=O` [Compound 006, N-[2-[8-methyl-2-[4-(4-methylpiperazin-1-yl)anilino]-7-oxo-pyrido[2,3-d]pyrimidin-6-yl]oxyphenyl]prop-2-ynamide], the values for the GI50 in experiment [1], in experiment [2] and in experiment [3] were at least 2.5 µM, 0.25 to 0.5 µM and at least 2.5 µM, respectively.

Consider `C=CC(=O)Nc1ccccc1Oc1cc2cnc(Nc3ccc(N4CCN(C)CC4)nc3)nc2n(C)c1=O` [Compound 005], for which the GI50 in experiment [1] was at least 2.5 µM; in experiment [2], 0.5 to 2.5 µM; in experiment [3], at least 2.5 µM.

Regarding `C=CC(=O)N1CCc2cccc(Oc3cc4cnc(Nc5ccc(N6CCN(C)CC6)cc5)nc4n(C)c3=O)c21` [Compound 003], the GI50 in experiment [1] is 0.5 to 2.5 µM; in experiment [2], 0.5 to 2.5 µM; in experiment [3], at least 2.5 µM.

As to `C=CC(=O)N1CCN(c2cc3cnc(Nc4ccc(N5CCN(C)CC5)cc4)nc3n(C)c2=O)c2ccccc21` [Compound 010, 8-methyl-2-[4-(4-methylpiperazin-1-yl)anilino]-6-(4-prop-2-enoyl-2,3-dihydroquinoxalin-1-yl)pyrido[2,3-d]pyrimidin-7-one], the GI50 in experiment [1] is at least 2.5 µM; in experiment [2], at most 0.25 µM; in experiment [3] it was at most 0.25 µM.

On to `C=CC(=O)Nc1ccccc1Cc1cc2cnc(Nc3ccc(N4CCN(C)CC4)cc3)nc2n(C)c1=O` [Compound 001, N-[2-[[8-methyl-2-[4-(4-methylpiperazin-1-yl)anilino]-7-oxo-pyrido[2,3-d]pyrimidin-6-yl]methyl]phenyl]prop-2-enamide], for which the GI50 in experiment [1] is 0.5 to 2.5 µM; in experiment [2], 0.25 to 0.5 µM; in experiment [3], 0.5 to 2.5 µM.

`C=CC(=O)Nc1ccccc1Oc1cc2cnc(Nc3ccc(N4CCN(C)CC4)cc3OC)nc2n(C)c1=O` [Compound 004]: the GI50 in experiment [1] was at least 2.5 µM; in experiment [2], 0.25 to 0.5 µM; in experiment [3], 0.5 to 2.5 µM.

`C=CC(=O)Nc1ccccc1Oc1cc2cnc(Nc3ccc(N4CCN(C)CC4)cc3)nc2n(C)c1=O` [Compound 002, N-[2-[8-methyl-2-[4-(4-methylpiperazin-1-yl)anilino]-7-oxo-pyrido[2,3-d]pyrimidin-6-yl]oxyphenyl]prop-2-enamide]: the GI50 in experiment [1] was at least 2.5 µM; in experiment [2] it was at most 0.25 µM; in experiment [3], 0.25 to 0.5 µM.

Consider `C=CC(=O)Nc1ccccc1Oc1cc2cnc(Nc3ccc(N4CCN(C)CC4)cc3)nc2n(C2CCCN(C(C)=O)C2)c1=O` (centres unmarked) [Compound 007, N-[2-[8-(1-acetyl-3-piperidyl)-2-[4-(4-methylpiperazin-1-yl)anilino]-7-oxo-pyrido[2,3-d]pyrimidin-6-yl]oxyphenyl]prop-2-enamide], for which the figures for the GI50 in experiment [1], in experiment [2] and in experiment [3] were at least 2.5 µM, 0.25 to 0.5 µM and at least 2.5 µM, respectively.

Turning to `C=CC(=O)N1CCN(c2cc3cnc(Nc4ccc(OCCN(C)C)cc4)nc3n(CCO)c2=O)c2cccc(C)c21` [Compound 047, 2-[4-[2-(dimethylamino)ethoxy]anilino]-8-(2-hydroxyethyl)-6-(5-methyl-4-prop-2-enoyl-2,3-dihydroquinoxalin-1-yl)pyrido[2,3-d]pyrimidin-7-one], the GI50 in experiment [2] and in experiment [3] was at most 0.25 µM in each case.

Turning to `C=CC(=O)N1CCN(c2cc3cnc(Nc4ccc(N5CCN(C)CC5)c(F)c4)nc3n(C)c2=O)c2cccc(C)c21` [Compound 040], the GI50 in experiment [2] and in experiment [3] was at most 0.25 µM each time.

Regarding `C=CC(=O)N1CCN(c2cc3cnc(Nc4ccc(N5CCN(C)CC5)cc4)nc3n(C)c2=O)CC1` [Compound 009, 8-methyl-2-[4-(4-methylpiperazin-1-yl)anilino]-6-(4-prop-2-enoylpiperazin-1-yl)pyrido[2,3-d]pyrimidin-7-one], the GI50 in experiment [1], in experiment [2] and in experiment [3] was at least 2.5 µM in each case.

`C=CC(=O)N1CCN(c2cc3cnc(Nc4cnn(CCO)c4)nc3n(C)c2=O)c2cccc(C)c21` [Compound 038]: the GI50 in experiment [2] and in experiment [3] was at most 0.25 µM in each case.

As for `C=CC(=O)N1CCN(c2cc3cnc(Nc4cc5c(cc4F)CCN(C)C5)nc3n(C)c2=O)c2cccc(C)c21` [Compound 061, 2-[(6-fluoro-2-methyl-3,4-dihydro-1H-isoquinolin-7-yl)amino]-8-methyl-6-(5-methyl-4-prop-2-enoyl-2,3-dihydroquinoxalin-1-yl)pyrido[2,3-d]pyrimidin-7-one], the GI50 in experiment [2] and in experiment [3] was at most 0.25 µM in each case.

On to `C=CC(=O)Nc1c(O)cccc1Oc1cc2cnc(Nc3ccc(N4CCN(C)CC4)cc3)nc2n(C)c1=O` [Compound 064, N-[2-hydroxy-6-[8-methyl-2-[4-(4-methylpiperazin-1-yl)anilino]-7-oxo-pyrido[2,3-d]pyrimidin-6-yl]oxy-phenyl]prop-2-enamide], for which the GI50 was at most 0.25 µM in experiment [2] and 0.25 to 0.5 µM in experiment [3].

Regarding `C=CC(=O)NC1CCCN(c2cc3cnc(Nc4cnn(CCO)c4)nc3n(C)c2=O)C1` (centres unmarked) [Compound 015, N-[1-[2-[[1-(2-hydroxyethyl)pyrazol-4-yl]amino]-8-methyl-7-oxo-pyrido[2,3-d]pyrimidin-6-yl]-3-piperidyl]prop-2-enamide], the GI50 in experiment [2] and in experiment [3] was at least 2.5 µM throughout.

For `C=CC(=O)N1CCN(c2cc3cnc(NC4CC4)nc3n(C3CCN(C)CC3)c2=O)c2cccc(C)c21` [Compound 105, 2-(cyclopropylamino)-8-(1-methyl-4-piperidyl)-6-(5-methyl-4-prop-2-enoyl-2,3-dihydroquinoxalin-1-yl)pyrido[2,3-d]pyrimidin-7-one], the GI50 in experiment [2] and in experiment [3] was at most 0.25 µM each time.

The record behind these values is patent US20250221998A1, “DISCOVERY OF COVALENT EGFR INHIBITOR THROUGH CYSTEINE 775” (Dana-Farber Cancer Institute, Inc., priority 2022, published 2025).
